Assay [1] has as its system human cervical carcinoma HeLa cells. Description: cells. The class given is cell-based. The protocol:
(§1) MTT [3-(4,5-dimethylthiazol-2-yl)-2,5-diphenyltetrazolium bromide] incorporation based cell proliferation assay was performed using standard procedure. […] The assay was carried out according to the instructions provided by the vendor. […] Vehicle control culture wells received only a maximum of 0.5% DMSO. Thereafter, 0.5 mg/ml of MTT reagent was added to each well and the microplate was incubated further for 4 h at 37° C. in presence of 5% CO2. Finally, the cells were solubilized by adding solubilizing solution and allowed to incubate at 37° C. overnight. After complete solubilization of the formazan crystals the absorbance was read at 540 nm in a microplate reader (BioRad, USA).
(§2) The evaluation of cell proliferation inhibitory activities of the compounds was done in two phases—(1) Screening, and (2) half-maximal inhibitory concentration (IC50) determination. In the screening phase, the cells were treated with three different concentrations e.g. 1, 5 and 10 μg/ml.

Assay [2] deals with HepG2 (Hepatocellular Carcinoma). Kind of assay: cells. The assay is classed as cell-based. The protocol: as §1, §2
The subject of assay [3] is human breast carcinoma (estrogen receptor negative) MDA-MB-231 cells. Kind of assay: cells. The assay is classed as cell-based. Here is the method:
as §1, §2

Assay [4] has as its system human colorectal carcinoma HT29 cells. Description: MTT based cell proliferation assay, HT29. The note with it: Homo sapiens, HT-29, 72 h, read-out: Cell Proliferation Inhibition in HT29 (Colon carcinoma), IC50.
Assay [5] relates to human lung carcinoma A549 cells. Description: MTT based cell proliferation assay, A549. The note with it: Homo sapiens, A549, 72 h, read-out: Cell Proliferation Inhibition in A549 (Lung carcinoma), IC50.
The test system of assay [6] is human prostate DU145 cells. Description: MTT based cell proliferation assay, DU145. The following applies: Homo sapiens, DU-145, 72 h, read-out: Cell Proliferation Inhibition in DU145 (Prostate carcinoma), IC50.
Assay [7] deals with Human umbilical vein endothelial cells (HUVEC). Description: In vitro endothelial capillary formation assay. The following applies: HUVEC on Cultrex, 10 ng/ml FGF, Compound 27 at 0.5, 1.0, 2.5 and 5 μg/ml, 16 h. The assay is classed as cell-based. The protocol:
Human umbilical vein endothelial cells (HUVECs) were laid on Cultrex coated plates in presence of either 10 ng/ml human recombinant Fibroblast Growth Factor (FGF) alone (B) or concomitantly with Compound 27 at 0.5, 1.0, 2.5 and 5 μg/ml C, D, E, and F, respectively. The cells in presence of treatments were allowed to form endothelial capillary tubes for 16 h at 37° C. Panel A represents capillary-like endothelial tube formation in 0.1% DMSO treated vehicle control wells.
In vitro capillary formation assay was performed with Human umbilical vein endothelial cells (HUVEC), cultured on 10 mg/ml basement membrane extract (BME—Cultrex®, R&D Systems, USA) bed. Four hundred microliters of Cultrex was coated at 4° C. in each well of 24-well culture plate and allowed to gel at 37° C. for 1 h. HUVECs were plated at a density of 1×10^5 cells per well with 400 μl of EGM-2 medium (Lonza Walkersville Inc. Walkersville, Md.). The cells were then treated with either 10 ng/ml of Human recombinant Fibroblast Growth Factor (FGF, R&D Systems, Minneapolis, Minn.)) alone or concurrently with different concentrations of Compound 27 for 16 hours. Vehicle control cultures received only 0.1% DMSO. Pictures were taken under a Nikon Eclipse TS 100 microscope equipped with a Nikon Coolpix camera. […] In contrast, FGF promoted human endothelial capillary formation in vitro (FIG. 1).

Structures are written as SMILES. “Also recorded” adds a separate entry of the source.

`COc1cc2nc(CN(C)C)nc(Nc3cc(C(C)(C)C)[se]c3C(N)=O)c2cc1OC` [Compound 27]: the IC50 in assay [1] (Homo sapiens, HeLa, MTT, read-out: Cell proliferation inhibition (IC50) in HeLa (Cervical Carcinoma)) worked out at 2.88 µM; in assay [2] (Homo sapiens, HepG2, MTT, read-out: Cell proliferation inhibition (IC50) in HepG2 (Hepatocellular Carcinoma)) it was 2.34 µM; in assay [3] (Homo sapiens, MDA-MB-231, MTT, read-out: Cell proliferation inhibition (IC50) in MDA-MB-231 (Breast Carcinoma)), 3.09 µM; in assay [4], 2.86 µM; in assay [5], 3.58 µM; in assay [6] it was 2.97 µM. The “potency compared to Iressa, HeLa” value in assay [1] (ratio of IC50 values) is given as “equally more potent than Iressa”. In addition, the “potency compared to Iressa, HepG2” value in assay [2] (ratio of IC50 values) is reported as “equally more potent than Iressa”. Also, in assay [3] (ratio of IC50 values), the “potency compared to Iressa, MDA-MB-231” value is reported as “equally more potent than Iressa”. For the same compound, the results for the “inhibition of FGF induced capillary-like endothelial tube formation” value in assay [7] and in assay [7] (listed as compound 27) were “inhibits capillary-like endothelial tube formation in vitro; also recorded: inhibited FGF induced capillary formation in a dose dependent manner” and “significantly inhibiting endothelial capillary formation in a dose dependent manner”, respectively.

Source of the values: patent publication US8815879B2, “Substituted 4-(selenophen-2(or-3)-ylamino)pyrimidine compounds and methods of use thereof” (Kasina Laila Innova Pharmaceuticals Private Limited, priority 2010, dated 2014).
